Reference: PubChem BioAssay (NCI)
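48-hour exposure; five concentrations; linearly interpolated endpoints. At the TGI there is no net growth.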

Tests used:
Assay in all cases: NCI anticancer screen, dose series, 48 h
NCI-H23 lung = test system: NCI-H23 lung
EKVX NSCLC = test system: EKVX NSCLC
NCI-H226 lung = test system: NCI-H226 lung
IGROV1 ovarian = test system: IGROV1 ovarian
NCI-H522 lung = test system: NCI-H522 lung
786-0 renal = test system: 786-0 renal
NCI-H460 lung = test system: NCI-H460 lung
LOX IMVI melanoma = test system: LOX IMVI melanoma
MCF7 breast = test system: MCF7 breast
MOLT-4 leukemia = test system: MOLT-4 leukemia
ACHN renal = test system: ACHN renal
SW-620 colon = test system: SW-620 colon
HOP-92 NSCLC = test system: HOP-92 NSCLC
HCC-2998 colon = test system: HCC-2998 colon
TK-10 renal = test system: TK-10 renal
MALME-3M melanoma = test system: MALME-3M melanoma
SK-OV-3 ovarian = test system: SK-OV-3 ovarian
SK-MEL-5 melanoma = test system: SK-MEL-5 melanoma
SF-539 CNS = test system: SF-539 CNS
NCI/ADR-RES ovarian = test system: NCI/ADR-RES ovarian
K-562 leukemia = test system: K-562 leukemia
SF-295 CNS = test system: SF-295 CNS
MDA-N = test system: MDA-N
CCRF-CEM leukemia = test system: CCRF-CEM leukemia
SN12C renal = test system: SN12C renal
MDA-MB-435 = test system: MDA-MB-435
OVCAR-3 ovarian = test system: OVCAR-3 ovarian
HT29 colon = test system: HT29 colon
HCT-15 colon = test system: HCT-15 colon
A549 NSCLC = test system: A549 NSCLC
SF-268 CNS = test system: SF-268 CNS
CAKI-1 renal = test system: CAKI-1 renal
MDA-MB-231 breast = test system: MDA-MB-231 breast
OVCAR-4 ovarian = test system: OVCAR-4 ovarian
DU-145 prostate = test system: DU-145 prostate
HS 578T breast = test system: HS 578T breast
COLO 205 colon = test system: COLO 205 colon
HOP-62 NSCLC = test system: HOP-62 NSCLC
M14 melanoma = test system: M14 melanoma
T-47D breast = test system: T-47D breast
OVCAR-8 ovarian = test system: OVCAR-8 ovarian
HL-60(TB) leukemia = test system: HL-60(TB) leukemia
SK-MEL-28 melanoma = test system: SK-MEL-28 melanoma
U251 CNS = test system: U251 CNS
UACC-257 melanoma = test system: UACC-257 melanoma
BT-549 breast = test system: BT-549 breast
PC-3 prostate = test system: PC-3 prostate
OVCAR-5 ovarian = test system: OVCAR-5 ovarian
A498 renal = test system: A498 renal
SR leukemia = test system: SR leukemia
HCT-116 colon = test system: HCT-116 colon
KM12 colon = test system: KM12 colon
UACC-62 melanoma = test system: UACC-62 melanoma
UO-31 renal = test system: UO-31 renal
SNB-19 CNS = test system: SNB-19 CNS
RPMI-8226 leukemia = test system: RPMI-8226 leukemia
RXF 393 renal = test system: RXF 393 renal
SNB-75 CNS = test system: SNB-75 CNS

Compound: O=C1C=C(N2CCN(c3ncccn3)CC2)C(=O)c2c(O)ccc(O)c21
- TGI (NCI-H23 lung): > 100 µM
- TGI (EKVX NSCLC): > 100 µM
- TGI (NCI-H226 lung): > 100 µM
- TGI (IGROV1 ovarian): > 100 µM
- TGI (NCI-H522 lung): > 100 µM
- TGI (786-0 renal): > 100 µM
- TGI (NCI-H460 lung): > 100 µM
- TGI (LOX IMVI melanoma): > 100 µM
- TGI (MCF7 breast): > 100 µM
- TGI (MOLT-4 leukemia): > 100 µM
- TGI (ACHN renal): > 100 µM
- TGI (SW-620 colon): > 100 µM
- TGI (HOP-92 NSCLC): > 100 µM
- TGI (HCC-2998 colon): > 100 µM
- TGI (TK-10 renal): > 100 µM
- TGI (MALME-3M melanoma): 46.6 µM
- TGI (SK-OV-3 ovarian): > 100 µM
- TGI (SK-MEL-5 melanoma): > 100 µM
- TGI (SF-539 CNS): 55.7 µM
- TGI (NCI/ADR-RES ovarian): > 100 µM
- TGI (K-562 leukemia): > 100 µM
- TGI (SF-295 CNS): > 100 µM
- TGI (MDA-N): 31.3 µM
- TGI (CCRF-CEM leukemia): > 100 µM
- TGI (SN12C renal): > 100 µM
- TGI (MDA-MB-435): 24.3 µM
- TGI (OVCAR-3 ovarian): > 100 µM
- TGI (HT29 colon): > 100 µM
- TGI (HCT-15 colon): > 100 µM
- TGI (A549 NSCLC): > 100 µM
- TGI (SF-268 CNS): > 100 µM
- TGI (CAKI-1 renal): > 100 µM
- TGI (MDA-MB-231 breast): > 100 µM
- TGI (OVCAR-4 ovarian): > 100 µM
- TGI (DU-145 prostate): > 100 µM
- TGI (HS 578T breast): > 100 µM
- TGI (COLO 205 colon): > 100 µM
- TGI (HOP-62 NSCLC): > 100 µM
- TGI (M14 melanoma): > 100 µM
- TGI (T-47D breast): > 100 µM
- TGI (OVCAR-8 ovarian): > 100 µM
- TGI (HL-60(TB) leukemia): > 100 µM
- TGI (SK-MEL-28 melanoma): > 100 µM
- TGI (U251 CNS): > 100 µM
- TGI (UACC-257 melanoma): > 100 µM
- TGI (BT-549 breast): > 100 µM
- TGI (PC-3 prostate): > 100 µM
- TGI (OVCAR-5 ovarian): > 100 µM
- TGI (A498 renal): > 100 µM
- TGI (SR leukemia): > 100 µM
- TGI (HCT-116 colon): > 100 µM
- TGI (KM12 colon): > 100 µM
- TGI (UACC-62 melanoma): > 100 µM
- TGI (UO-31 renal): > 100 µM
- TGI (SNB-19 CNS): > 100 µM

Compound: Cc1nc2ccc(Cl)cc2c2c1CCO2
- TGI (NCI-H23 lung): > 100 µM
- TGI (EKVX NSCLC): > 100 µM
- TGI (NCI-H226 lung): > 100 µM
- TGI (IGROV1 ovarian): > 100 µM
- TGI (NCI-H522 lung): > 100 µM
- TGI (786-0 renal): > 100 µM
- TGI (RPMI-8226 leukemia): > 100 µM
- TGI (NCI-H460 lung): > 100 µM
- TGI (LOX IMVI melanoma): > 100 µM
- TGI (MCF7 breast): > 100 µM
- TGI (MOLT-4 leukemia): > 100 µM
- TGI (ACHN renal): > 100 µM
- TGI (SW-620 colon): > 100 µM
- TGI (HOP-92 NSCLC): > 100 µM
- TGI (HCC-2998 colon): > 100 µM
- TGI (TK-10 renal): > 100 µM
- TGI (MALME-3M melanoma): > 100 µM
- TGI (SK-MEL-5 melanoma): > 100 µM
- TGI (SF-539 CNS): > 100 µM
- TGI (NCI/ADR-RES ovarian): > 100 µM
- TGI (K-562 leukemia): > 100 µM
- TGI (SF-295 CNS): > 100 µM
- TGI (MDA-N): > 100 µM
- TGI (CCRF-CEM leukemia): > 100 µM
- TGI (SN12C renal): > 100 µM
- TGI (MDA-MB-435): > 100 µM
- TGI (OVCAR-3 ovarian): > 100 µM
- TGI (HT29 colon): > 100 µM
- TGI (HCT-15 colon): > 100 µM
- TGI (A549 NSCLC): > 100 µM
- TGI (SF-268 CNS): > 100 µM
- TGI (CAKI-1 renal): 79.6 µM
- TGI (MDA-MB-231 breast): > 100 µM
- TGI (OVCAR-4 ovarian): > 100 µM
- TGI (DU-145 prostate): > 100 µM
- TGI (RXF 393 renal): 71.3 µM
- TGI (HS 578T breast): > 100 µM
- TGI (COLO 205 colon): > 100 µM
- TGI (HOP-62 NSCLC): > 100 µM
- TGI (T-47D breast): > 100 µM
- TGI (OVCAR-8 ovarian): > 100 µM
- TGI (HL-60(TB) leukemia): > 100 µM
- TGI (SK-MEL-28 melanoma): > 100 µM
- TGI (SNB-75 CNS): > 100 µM
- TGI (U251 CNS): > 100 µM
- TGI (UACC-257 melanoma): > 100 µM
- TGI (BT-549 breast): > 100 µM
- TGI (PC-3 prostate): > 100 µM
- TGI (A498 renal): > 100 µM
- TGI (SR leukemia): > 100 µM
- TGI (HCT-116 colon): > 100 µM
- TGI (KM12 colon): > 100 µM
- TGI (UACC-62 melanoma): > 100 µM
- TGI (UO-31 renal): > 100 µM
- TGI (SNB-19 CNS): > 100 µM
